Reference: patent publication US20220264878A1, “HERBICIDAL COMPOSITION CONTAINING R-TYPE PYRIDYLOXY CARBOXYLIC ACID DERIVATIVE AND USE THEREOF” (Qingdao Kingagroot Chemical Compound Co., Ltd., priority 2019, published 2022)

Tests used:
Assay in all cases: Post-emergence foliage spray, pot culture, fresh weight inhibition (Tables 1-48, 51-98, 101-148; 24 days)
Type in all cases: in vivo
Amaranthus retroflexus = test system: Amaranthus retroflexus
In short: (§1)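 Greenhouse pot-grown weeds (15 per pot, 3 pots, 4 replicates) at the 5–6-leaf (grasses) or 6–7-leaf (broadleaf) stage were sprayed once on foliage at 450 kg/ha spray volume, 0.3 MPa. Acetone solutions were diluted in 0.1% Tween-80. Aboveground fresh weight versus blank control was recorded after 24 days.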

Acalypha australis = test system: Acalypha australis
In short: as §1

Chenopodium album = test system: Chenopodium album
In short: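 Pot-grown weeds were thinned to 15 per pot (45 per treatment) and sprayed on foliage at the 5–6-leaf stage for grasses or the 6–7-leaf stage for broadleaves. Agents were dissolved in acetone with 0.1% Tween-80 and applied at 450 kg/ha spray volume and 0.3 MPa. Plants were then kept in a greenhouse. Above-ground fresh weight of survivors, with dead plants counted as zero, gave inhibition versus a solvent/emulsifier blank.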

O=C(O)c1cc(Oc2ccc(C(F)(F)F)cc2Cl)ccc1[N+](=O)[O-] [acifluorfen-sodium]
Control effect (%) of B applied alone in corresponding dose (Amaranthus retroflexus; acifluorfen-sodium 37.5 g a.i./ha): 4.4% | Control effect (%) of B applied alone in corresponding dose (Amaranthus retroflexus; acifluorfen-sodium 75 g a.i./ha): 10.3% | Control effect (%) of B applied alone in corresponding dose (Amaranthus retroflexus; acifluorfen-sodium 150 g a.i./ha): 45.1% | Control effect (%) of B applied alone in corresponding dose (Amaranthus retroflexus; acifluorfen-sodium 300 g a.i./ha): 85.0% | Control effect (%) of B applied alone in corresponding dose (Acalypha australis; B 37.5 g a.i./ha): 5.8% | Control effect (%) of B applied alone in corresponding dose (Acalypha australis; B 75 g a.i./ha): 11.6% | Control effect (%) of B applied alone in corresponding dose (Acalypha australis; B 150 g a.i./ha): 46.6% | Control effect (%) of B applied alone in corresponding dose (Acalypha australis; B 300 g a.i./ha): 85.3% | Control effect (%) of B applied alone in corresponding dose (Chenopodium album; Table 95, 37.5 g a.i./ha): 2.0% | Control effect (%) of B applied alone in corresponding dose (Chenopodium album; Table 95, 75 g a.i./ha): 13.7% | Control effect (%) of B applied alone in corresponding dose (Chenopodium album; Table 95, 150 g a.i./ha): 45.0% | Control effect (%) of B applied alone in corresponding dose (Chenopodium album; Table 95, 300 g a.i./ha): 81.0%

C#CCN1C(=O)COc2cc(F)c(N3C(=O)C4=C(CCCC4)C3=O)cc21 [flumioxazin]
Control effect (%) of B applied alone in corresponding dose (Amaranthus retroflexus; flumioxazin 7.5 g a.i./ha): 5.5% | Control effect (%) of B applied alone in corresponding dose (Amaranthus retroflexus; flumioxazin 15 g a.i./ha): 12.4% | Control effect (%) of B applied alone in corresponding dose (Amaranthus retroflexus; flumioxazin 30 g a.i./ha): 37.4% | Control effect (%) of B applied alone in corresponding dose (Amaranthus retroflexus; flumioxazin 60 g a.i./ha): 78.9% | Control effect (%) of B applied alone in corresponding dose (Acalypha australis; B 7.5 g a.i./ha): 6.9% | Control effect (%) of B applied alone in corresponding dose (Acalypha australis; B 15 g a.i./ha): 13.7% | Control effect (%) of B applied alone in corresponding dose (Acalypha australis; B 30 g a.i./ha): 39.0% | Control effect (%) of B applied alone in corresponding dose (Acalypha australis; B 60 g a.i./ha): 79.3% | Control effect (%) of B applied alone in corresponding dose (Chenopodium album; Table 96, 7.5 g a.i./ha): 3.4% | Control effect (%) of B applied alone in corresponding dose (Chenopodium album; Table 96, 15 g a.i./ha): 12.8% | Control effect (%) of B applied alone in corresponding dose (Chenopodium album; Table 96, 30 g a.i./ha): 37.3% | Control effect (%) of B applied alone in corresponding dose (Chenopodium album; Table 96, 60 g a.i./ha): 78.8%
